This is an account of results in patent publication US20260060960A1, “GAMMA-SECRETASE INHIBITORS FOR USE IN THE TREATMENT OF INHERITED EPIDERMOLYSIS BULLOSA” (OSPEDALE PEDIATRICO BAMBINO GESU', priority 2022, published 2026).

Common to all, as to assay type: cell-based, human
For one data set, the system named is JAG1. The experiment in a line: Immunoblotting of JAG1 after siRNA transfection (silencing efficiency). The note with it: RDEB-FBs; for JAG1 expression levels (immunoblotting): 48 h after transfection, absence of TGF-β1, vs Scramble. An excerpt: Transfection of short interfering RNAs targeting Jagged 1. Two candidate short interfering RNA (siRNA) sequences complementary to different regions of the human JAG1 mRNA, si-JAG1-1 and si-JAG1-2, were chosen to be functionally evaluated in the context of transfection experiments. siJAG1-1 and siJAG1-2 sequences are indicated below: 5′-GAAUGUGAGGCCAAACCUU[dT][dT]-3′ (SEQ ID NO:1) (si-JAG1-1, cod. SASI_Hs01_00100441) and 5′-CCUGUAACAUAGCCCGAAA[dT][dT]-3′ (SEQ ID NO:2) (si-JAG1-2, cod. SASI_Hs01_00100442). Both siRNAs were purchased from Merck (Merck, Darmstadt, Germany). Lipofectamine 2000 (Thermo Fisher Scientific, Waltham, MA, USA) was used to transfect siRNAs, following manufacturer's protocol. After 48 h, the silencing efficiency of the two candidate siRNAs was assessed by immunoblotting (IB) (FIG. 2). […] Accordingly, si-JAG1-2, throughout the text indicated as si-JAG1, was selected for all downstream silencing experiments. The MISSION® siRNA Universal Negative Control #1 (Merck) was used as negative control for siRNA transfections.
(§1) Whole-cell lysates were obtained in radioimmunoprecipitation assay (RIPA) buffer (Sigma-Aldrich) supplemented with phosphatase- and protease inhibitors (Merck). Different amounts of protein lysates were run under reducing conditions by using 4-12% gradient precast gels (Thermo Fisher Scientific) or hand-casting polyacrylamide gels (4-8%), depending on the protein to be assayed. Amersham™ Protran® Premium nitrocellulose membranes (pore size 0.2 μm) (Merck) were immunoblotted with primary antibodies indicated in Table 3 and incubated with horseradish peroxidase-linked secondary antibodies.
For orientation: Immunoblotting shows a protein as a band on a membrane.

For data set [1], the system named is primary fibroblasts from RDEB patients (RDEB-FBs). Nature of the data set: Collagen lattice contraction (CLC) assay. The conditions noted are these: RDEB-FBs vs Scramble siRNA, with and without TGF-β1. The method, then: RDEB-FBs (5×10^5 cells) were mixed in a collagen buffer and seeded into 12-well plates as previously described. After gelation, fibroblast-populated collagen lattices were detached from the wells and left floating. RDEB-FBs were treated with 20 μM of DAPT and PF-03804014 in DMEM containing 0.1% BSA, in the presence or absence of TGF-β1 at 2 ng/mL, as contraction booster. JAG1-silenced RDEB-FBs were embedded in collagen lattices 24 h after siRNA transfection. In both cases, images were acquired with ChemiDoc™ XRS+ System (Bio-Rad, Hercules, CA, USA) at the detachment of collagen lattices from the wells (time 0, TO) and after 48 h. Gel areas were measured by ImageJ software and photos at TO were used as references.

Another data set concerns α-SMA, TAGLN, CNN1, JAG1. The experiment in a line: Immunoblotting of myofibroblast/fibrotic markers in RDEB fibroblasts. The note with it: RDEB-FBs vs Scramble, treated or not with TGF-β1.
Text: as §1
Detection was performed using Cytiva ECL™ Prime Western Blotting System (Merck) or SuperSignal West Femto (Thermo Fisher Scientific), depending on the protein to be assayed. Antibody against Notch1 (all forms; clone bTAN20) was obtained from the Developmental Studies Hybridoma Bank (DSHB) at the University of Iowa (DSHB, Iowa City, IA, USA). GAPDH (clone 14C10), Jagged1 (clone 28H8) and NOTCH1 intracellular domain (clone D3B8) were obtained from Cell Signaling (Cell Signaling Technology Inc., Beverly, MA, USA). Antibodies against TAGLN (clone #859112) and CNN1 (clone #836701) were from R&D Systems (R&D Systems, Inc. Minneapolis, MN, USA). Antibody against α-SMA (clone 1A4) was purchased from Sigma-Aldrich. Antibody against lamin B1 (LMNB1) was from Abcam (Cambridge, UK). […]

d = 2'-deoxy (DNA); r = 2'-OH (RNA)

With “si-JAG1-1: short interfering RNA targeting human JAG1 mRNA, 5′-GAAUGUGAGGCCAAACCUU[dT][dT]-3′ (SEQ ID NO:1) (sense GAAUGUGAGGCCAAACCUUTT; sugars from the 5' end r19 d2, backbone and methylation of C not given here)”, in the data set with JAG1, the “JAG1 expression levels (immunoblotting)” value is given as “able to reduce JAG1 expression levels”.

As to “si-JAG1-2: short interfering RNA targeting human JAG1 mRNA, 5′-CCUGUAACAUAGCCCGAAA[dT][dT]-3′ (SEQ ID NO:2); indicated as si-JAG1 throughout (sense CCUGUAACAUAGCCCGAAATT; sugars from the 5' end r19 d2, backbone and methylation of C not given here)”, in the data set on JAG1, the “JAG1 expression levels (immunoblotting)” value is reported as “able to reduce JAG1 expression levels”. Also, the “JAG1 protein levels (immunoblotting)” value in the data set with JAG1 (presence of TGF-β1 2 ng/mL for 24 h, compared with si-JAG1-1) was “major reduction of JAG1 protein levels”. Moreover, in data set [1], the “cell ability to contract type I collagen matrix after JAG1 silencing” value is reported as “reduced”. In the data set with α-SMA, TAGLN, CNN1, JAG1, the “protein levels of α-SMA, CNN1, TAGLN, JAG1, NOTCH FL after JAG1 silencing” value was “significant reduction of α-SMA, CNN1, TAGLN, JAG1 and unprocessed NOTCH1 receptor”.
